Assay results as given in US10196403B2, “Compounds and compositions and uses thereof” (Sunovion Pharmaceuticals Inc., priority 2016, dated 2019).

System: mice
Assay: Neuropharmacological Assay (SmartCube)
Assay type: in vivo
Conditions: for minimal effective dose: Mus musculus, MED = dose having 50% or more total activity in SmartCube, read-out: POTENCY (minimal effective dose, MED); for AD: ADHD (SmartCube probability) / AG: analgesic (SmartCube probability) / AX: anxiolytic (SmartCube probability) / CE: cognitive enhancer (SmartCube probability) / DP: anti-depressant (SmartCube probability) / MS: mood stabilizer (SmartCube probability) / PS: anti-psychotic (SmartCube probability) / SD: sedative hypnotic (SmartCube probability) / UN: uncharacterized CNS activity (SmartCube probability): mice, i.p. 15 min before test, most efficacious dose(s) of 3 doses
Excerpt: Neuropharmacological Assay (SmartCube™)
Neurosci. 2011 Sep. 9; 5:103 (doi: 10.3389/fnins.2011.00103) (“Roberds”). As reported in Roberds, because psychiatric diseases generally result from disorders of cell-cell communication, circuitry, intact systems are useful in detecting improvement in disease-relevant endpoints. These endpoints are typically behavioral in nature, often requiring human observation and interpretation. To facilitate testing of multiple compounds for behavioral effects relevant to psychiatric disease, PsychoGenics, Inc. (Tarrytown, N.Y., “PGI”) developed SmartCube™, an automated system in which behaviors of compound-treated mice are captured by digital video and analyzed with computer algorithms. (D. Brunner et al., Drug Discov. Today 2002, 7:S107-S112). PGI Analytical Systems uses data from SmartCube™ to compare the behavioral signature of a test compound to a database of behavioral signatures obtained using a large set of diverse reference compounds. (The composition of the database as well as validation of the method is further described in Roberds). In this way, the neuropharmacological effects of a test compound can be predicted by similarity to major classes of compounds, such as antipsychotics, anxiolytics and antidepressants.
The SmartCube™ system produces an activity signature indicating the probability that the activity of the test compound at the administered dose matches a given class of neuropharmacological agents. (See, e.g., Roberds, FIGS. 2 and 3). The test compound is simultaneously compared against multiple classes of agents; thus, a separate probability is generated for each behavioral effect measured (e.g., anxiolytic activity, analgesic activity, etc.). In the table below, these probabilities are reported for each behavioral effect measured as follows:
where LOQ is the limit of quantification.
Provided compounds were dissolved in a mixture of Pharmasolve™ (N-methyl-2-pyrrolidone), polyethylene glycol and propylene glycol, and were injected i.p. 15 min. before the behavioral test. For each compound, injections were administered at 3 different doses. For each behavioral effect measured, results for the most efficacious dose(s) are presented. In the table below, DP: anti-depressant; AX: anxiolytic; SD: sedative hypnotic; PS: anti-psychotic; MS: mood stabilizer; AD: ADHD; CE: cognitive enhancer; AG: analgesic; UN: uncharacterized CNS activity.
The potency of many of the compounds in the table was also determined in the SmartCube™ system. Test compounds were routinely examined at dose levels of 0.3, 1, 3 10 and 30 mg per kg (mpk), although the dose range was increased or decreased if necessary to obtain a full dose response curve. A compound's minimal effective dose (MED) is a measure of the compounds potency. The MED was defined as the dose (in mpk) having 50% or more total activity in SmartCube.

SMILES | minimal effective dose | AD: ADHD (SmartCube probability) | AG: analgesic (SmartCube probability) | AX: anxiolytic (SmartCube probability) | CE: cognitive enhancer (SmartCube probability) | DP: anti-depressant (SmartCube probability) | MS: mood stabilizer (SmartCube probability) | PS: anti-psychotic (SmartCube probability) | SD: sedative hypnotic (SmartCube probability) | UN: uncharacterized CNS activity (SmartCube probability)
CNC[C@H]1OC[C@@H](F)c2ccccc21 [Example 21, 1-((1S,4S)-4-fluoroisochroman-1-yl)-N-methylmethanamine] | 3 to 10 mg/kg | + (LOQ≤ + <5%) | +++ (25%≤ +++ <50%) | ++ (5%≤ ++ <25%) | ++ (5%≤ ++ <25%) | ++ (5%≤ ++ <25%) | + (LOQ≤ + <5%) | ++ (5%≤ ++ <25%) | ++ (5%≤ ++ <25%) | +++ (25%≤ +++ <50%)
CNC[C@@H]1OC[C@H](F)c2ccccc21 [Example 22, 1-((1R,4R)-4-fluoroisochroman-1-yl)-N-methylmethanamine] | < 3 mg/kg | + (LOQ≤ + <5%) | ++ (5%≤ ++ <25%) | ++ (5%≤ ++ <25%) | ++ (5%≤ ++ <25%) | +++ (25%≤ +++ <50%) | ++ (5%≤ ++ <25%) | +++ (25%≤ +++ <50%) | ++ (5%≤ ++ <25%) | + (LOQ≤ + <5%)
CNC[C@H]1OCC(C)(C)c2ccccc21 [Example 23, (S)-1-(4,4-dimethylisochroman-1-yl)-N-methylmethanamine] | 3 to 10 mg/kg | + (LOQ≤ + <5%) | ++ (5%≤ ++ <25%) | ++ (5%≤ ++ <25%) | ++ (5%≤ ++ <25%) | ++ (5%≤ ++ <25%) | + (LOQ≤ + <5%) | +++ (25%≤ +++ <50%) | ++ (5%≤ ++ <25%) | + (LOQ≤ + <5%)
CNC[C@@H]1OCC(C)(C)c2ccccc21 [Example 24, (R)-1-(4,4-dimethylisochroman-1-yl)-N-methylmethanamine] | < 3 mg/kg | + (LOQ≤ + <5%) | ++ (5%≤ ++ <25%) | ++ (5%≤ ++ <25%) | ++ (5%≤ ++ <25%) | ++ (5%≤ ++ <25%) | + (LOQ≤ + <5%) | +++ (25%≤ +++ <50%) | ++ (5%≤ ++ <25%) | +++ (25%≤ +++ <50%)
CNC[C@H]1OCCc2cccc(F)c21 [Example 25, (S)-1-(8-fluoroisochroman-1-yl)-N-methylmethanamine] | 3 to 10 mg/kg | + (LOQ≤ + <5%) | ++ (5%≤ ++ <25%) | + (LOQ≤ + <5%) | ++ (5%≤ ++ <25%) | +++ (25%≤ +++ <50%) | + (LOQ≤ + <5%) | ++ (5%≤ ++ <25%) | ++ (5%≤ ++ <25%) | + (LOQ≤ + <5%)
CNC[C@H]1OCC(F)(F)c2ccccc21 [Example 27, (S)-1-(4,4-difluoroisochroman-1-yl)-N-methylmethanamine] | 10 to 30 mg/kg | + (LOQ≤ + <5%) | ++ (5%≤ ++ <25%) | ++ (5%≤ ++ <25%) | ++ (5%≤ ++ <25%) | ++ (5%≤ ++ <25%) | + (LOQ≤ + <5%) | + (LOQ≤ + <5%) | + (LOQ≤ + <5%) | +++ (25%≤ +++ <50%)
CNC[C@@H]1OCC(F)(F)c2ccccc21 [Example 28, (R)-1-(4,4-difluoroisochroman-1-yl)-N-methylmethanamine] | < 3 mg/kg | + (LOQ≤ + <5%) | ++ (5%≤ ++ <25%) | ++ (5%≤ ++ <25%) | ++ (5%≤ ++ <25%) | ++ (5%≤ ++ <25%) | + (LOQ≤ + <5%) | +++ (25%≤ +++ <50%) | ++ (5%≤ ++ <25%) | +++ (25%≤ +++ <50%)
NC[C@@H]1OCCc2c(F)cccc21 [Example 29, (R)-(5-fluoroisochroman-1-yl)methanamine] | 3 to 10 mg/kg | + (LOQ≤ + <5%) | ++ (5%≤ ++ <25%) | ++ (5%≤ ++ <25%) | ++ (5%≤ ++ <25%) | ++++ (50%≤ ++++) | + (LOQ≤ + <5%) | + (LOQ≤ + <5%) | + (LOQ≤ + <5%) | ++ (5%≤ ++ <25%)
CNC[C@H]1OCCc2c(F)ccc(F)c21 [Example 30, (S)-1-(5,8-difluoroisochroman-1-yl)-N-methylmethanamine] | 3 to 10 mg/kg | + (LOQ≤ + <5%) | ++ (5%≤ ++ <25%) | ++ (5%≤ ++ <25%) | ++ (5%≤ ++ <25%) | ++ (5%≤ ++ <25%) | + (LOQ≤ + <5%) | ++ (5%≤ ++ <25%) | ++ (5%≤ ++ <25%) | +++ (25%≤ +++ <50%)
CNC[C@@H]1OCCc2c(F)ccc(F)c21 [Example 31, (R)-1-(5,8-difluoroisochroman-1-yl)-N-methylmethanamine] | < 3 mg/kg | + (LOQ≤ + <5%) | ++ (5%≤ ++ <25%) | ++ (5%≤ ++ <25%) | ++ (5%≤ ++ <25%) | ++++ (50%≤ ++++) | + (LOQ≤ + <5%) | + (LOQ≤ + <5%) | + (LOQ≤ + <5%) | + (LOQ≤ + <5%)
CNC[C@H]1OCCc2c(Cl)cccc21 [Example 32, (S)-1-(5-chloroisochroman-1-yl)-N-methylmethanamine] | 10 to 30 mg/kg | + (LOQ≤ + <5%) | + (LOQ≤ + <5%) | ++ (5%≤ ++ <25%) | ++ (5%≤ ++ <25%) | ++ (5%≤ ++ <25%) | + (LOQ≤ + <5%) | ++ (5%≤ ++ <25%) | + (LOQ≤ + <5%) | + (LOQ≤ + <5%)
CNC[C@@H]1OCCc2c(Cl)cccc21 [Example 33, (R)-1-(5-chloroisochroman-1-yl)-N-methylmethanamine] | < 3 mg/kg | + (LOQ≤ + <5%) | ++ (5%≤ ++ <25%) | ++ (5%≤ ++ <25%) | ++ (5%≤ ++ <25%) | ++++ (50%≤ ++++) | + (LOQ≤ + <5%) | + (LOQ≤ + <5%) | ++ (5%≤ ++ <25%) | +++ (25%≤ +++ <50%)
